We go through 3 compounds from article PMC6128262 (Analytical chemistry, 2018).

Data set [1] deals with N[C@@H](Cc1c[nH]cn1)C(=O)O. In words: purified protein, by the assay type. The following applies: pH 8.0; 25.0 °C.
Another data set has as its system HpMTAN. The following applies: read-out: Km value for AdoHcy (HpMTAN); previously measured; cited from earlier work.
A further data set relates to CIAP. Particulars: read-out: Km value of ATP for CIAP; molybdenum blue based assay; cited from earlier work.

As usually defined, the Km is the concentration of substrate that gives half-maximal velocity. On to EgtD (Mycobacterium tuberculosis H37Rv), for which the Km in data set [1] was 330 ± 35 µM.
With `Nc1ncnc2c1ncn2[C@@H]1O[C@H](CSCC[C@H](N)C(=O)O)[C@@H](O)[C@H]1O` [AdoHcy, S-adenosylhomocysteine], the Km in the data set with HpMTAN was 5 µM.
As for `Nc1ncnc2c1ncn2[C@@H]1O[C@H](COP(=O)(O)OP(=O)(O)OP(=O)(O)O)[C@@H](O)[C@H]1O` [ATP], the Km in the data set on CIAP was 20.5 µM.
